Test results as given in patent US20180325861A1, “NOVEL CANNABINOID FORMULATIONS” (priority 2015, published 2018).
Read-outs that look alike come from different tables or passages of the source. Marks after values point to notes of the source that are not given here.

Experiments:
[1] = Combinatory PNL formulations with cyclosporine (2.2.1); format: physicochemical; settings: for dissolution in the cyclosporine formulation: 50 and 100 mg added to cyclosporine solution, visual, after refrigeration
Method: The mixtures were examined visually for complete dissolution, precipitation after 24 hours at refrigeration and for particle size when added to water.
The particle size of the formulations, when added to water, was above 100 nm, compared to the original formulation, as determined by transmission UV at 550 nm turbidity test.
Extensive testing and adjustments were required to design a formulation that could fit two or more agents in a single formulation.

[2] = Method: Formulations prepared by mixing the dry solid powder of the tested compound in either the blank formulation to form 5% w/v or in a formulation already containing 5% w/w CBD. Particle size was determined by particle size analyzer.
[3] = Preliminary screening for maximum CBD loading; format: physicochemical

Structure (SMILES): C[C@@H]1[C@H](O)[C@@H](C)/C=C/C=C/C=C/C=C/C=C/C=C/C=C/[C@H](O[C@@H]2O[C@H](C)[C@@H](O)[C@H](N)[C@@H]2O)C[C@@H]2O[C@](O)(C[C@@H](O)C[C@@H](O)[C@H](O)CC[C@@H](O)C[C@@H](O)CC(=O)O[C@H]1C)C[C@H](O)[C@H]2C(=O)O [Amphitericin B]
- dissolution in the cyclosporine formulation [1]: did not fully dissolve

Structure (SMILES): CCOC(=O)c1ccc(N)cc1 [Benzocaine]
- PDI ([2]; 3 hr after dissolution): 0.449
- Particle size ([2]; 3 hr after dissolution): 62.22 nm
- Visual ([2]; 3 hr after dissolution): clear
- PDI ([2]; after 13 days in 4 C): 0.479
- Particle size ([2]; after 13 days in 4 C): 65.82 nm
- Visual ([2]; after 13 days in 4 C): clear

Structure (SMILES): C=C(C)[C@@H]1CCC(C)=C[C@H]1c1c(O)cc(CCCCC)cc1O [CBD, Cannabidiol]
- appearance in the cyclosporine solution ([1]; CBD at 50 mg): clear solution
- maximum CBD load allowing formation of clear solution [3]: 10-12.5%

Structure (SMILES): O=C(N[C@H](CO)[C@H](O)c1ccc([N+](=O)[O-])cc1)C(Cl)Cl [Chloramphenicol]
- PDI ([2]; 3 hr after dissolution): 0.118
- Particle size ([2]; 3 hr after dissolution): 30.03 nm
- Visual ([2]; 3 hr after dissolution): clear
- PDI ([2]; after 13 days in 4 C): 0.172
- Particle size ([2]; after 13 days in 4 C): 29.64 nm
- Visual ([2]; after 13 days in 4 C): clear

Structure (SMILES): CC(C)CCC[C@@H](C)[C@H]1CC[C@H]2[C@@H]3CC=C4C[C@@H](O)CC[C@]4(C)[C@H]3CC[C@]12C [Cholesterol]
- PDI ([2]; 3 hr after dissolution): 0.487**
- Particle size ([2]; 3 hr after dissolution): 96.43 nm
- Visual ([2]; 3 hr after dissolution): turbid
- PDI ([2]; after 13 days in 4 C): 0.516
- Particle size ([2]; after 13 days in 4 C): 86.94 nm
- Visual ([2]; after 13 days in 4 C): turbid

Structure (SMILES): CC(C)Cc1ccc(C(C)C(=O)O)cc1 (centres unmarked) [Ibuprofen]
- PDI ([2]; 3 hr after dissolution): 0.398
- Particle size ([2]; 3 hr after dissolution): 74.28 nm
- Visual ([2]; 3 hr after dissolution): clear
- PDI ([2]; after 13 days in 4 C): 0.367
- Particle size ([2]; after 13 days in 4 C): 67.86 nm
- Visual ([2]; after 13 days in 4 C): clear

Structure (SMILES): CC(=O)O[C@H]1C(=O)[C@@]2(C)[C@H]([C@H](OC(=O)c3ccccc3)[C@]3(O)C[C@H](OC(=O)[C@H](O)[C@@H](NC(=O)c4ccccc4)c4ccccc4)C(C)=C1C3(C)C)[C@]1(OC(C)=O)CO[C@@H]1C[C@@H]2O [Paclitxel]
- Solubility in PNL with 5% CBD [2]: ~
- Particle size ([2]; 3 hr after dissolution): ~50 nm
- Visual ([2]; 3 hr after dissolution): clear
- Visual ([2]; after 13 days in 4 C): precipitate
- dissolution in the cyclosporine formulation [1]: did not fully dissolve
